Data from ChEMBL document CHEMBL5725536, “Multiple kinase pathway inhibitors” (2017).
pIC50: −log10 of the molar value.

How the values were obtained:
[1] = target: Tyrosine-protein kinase Lyn (Homo sapiens, UniProt P07948); experiment: (§1) Kinase Assays: A concentration of a drug that reduces the observed activity of an enzyme by 50%. An IC50 is not a true affinity constant and the specific value determined can vary depending on the particular assay used. Nonetheless the rank order of IC50 for a set of compounds will typically be similar from one assay to another. (The true affinity constant for an inhibitor binding to an enzyme, Ki, can of course also be used for the same purposes as described herein for IC50). With respect to the kinases that are targeted by the compounds disclosed herein, kinase activity can be assayed, without limitation, as consumption of ATP or as incorporation of phosphate into a substrate. For example, the assay used in Example 76 assesses consumption of ATP based on luminescent detection of ADP. As an alternate example, the assay used in Example 78 assesses incorporation of phosphate based on the radiologic detection of 33P-labeled artificial substrates. Myriad other kinase assays are known in the art many of which are commercially available either as a kit or a service and one of skill in the art will recognize their particular usefulness for generating IC50 data.
[2] = target: Proto-oncogene tyrosine-protein kinase Src (Homo sapiens, UniProt P12931); experiment: as §1
Sequence of Proto-oncogene tyrosine-protein kinase Src (P12931 2-536 limits assumed): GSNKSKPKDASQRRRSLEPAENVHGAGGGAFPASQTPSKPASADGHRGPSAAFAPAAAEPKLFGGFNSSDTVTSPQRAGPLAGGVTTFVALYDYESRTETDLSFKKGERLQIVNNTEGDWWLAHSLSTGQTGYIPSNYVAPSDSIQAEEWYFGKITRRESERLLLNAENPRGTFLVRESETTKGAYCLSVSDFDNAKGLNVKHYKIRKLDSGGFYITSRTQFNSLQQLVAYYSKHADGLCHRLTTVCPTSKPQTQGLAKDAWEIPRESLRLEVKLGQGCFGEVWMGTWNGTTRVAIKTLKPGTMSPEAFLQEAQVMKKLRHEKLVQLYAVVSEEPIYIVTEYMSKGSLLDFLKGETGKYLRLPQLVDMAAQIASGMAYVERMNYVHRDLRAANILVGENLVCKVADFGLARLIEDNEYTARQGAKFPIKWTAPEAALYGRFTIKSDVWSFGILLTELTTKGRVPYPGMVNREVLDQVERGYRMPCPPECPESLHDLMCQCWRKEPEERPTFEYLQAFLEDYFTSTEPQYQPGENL

Sequence of Tyrosine-protein kinase Lyn (P07948 whole entry): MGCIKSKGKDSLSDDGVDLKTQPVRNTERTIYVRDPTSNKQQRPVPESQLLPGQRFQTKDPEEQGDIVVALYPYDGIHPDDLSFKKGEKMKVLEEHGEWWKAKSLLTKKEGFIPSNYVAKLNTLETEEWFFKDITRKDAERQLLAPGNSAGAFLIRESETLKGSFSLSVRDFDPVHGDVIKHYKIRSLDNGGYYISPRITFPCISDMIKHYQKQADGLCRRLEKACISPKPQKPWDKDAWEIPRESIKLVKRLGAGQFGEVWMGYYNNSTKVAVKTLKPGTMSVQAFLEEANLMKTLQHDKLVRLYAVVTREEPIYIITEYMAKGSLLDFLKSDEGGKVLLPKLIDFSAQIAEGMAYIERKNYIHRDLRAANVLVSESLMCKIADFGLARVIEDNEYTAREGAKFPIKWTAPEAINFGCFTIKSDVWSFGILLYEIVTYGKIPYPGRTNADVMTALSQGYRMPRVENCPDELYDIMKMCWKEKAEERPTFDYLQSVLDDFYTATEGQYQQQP

Row | Compound | pIC50 [1] | pIC50 [2]
1 | CCN(CC)CCOc1ccc(Nc2cc3c(cn2)cc(C(C)C)c(=O)n3C)nc1 | < 5.30 | –
2 | CC(C)n1c(=O)c(-c2c(F)cccc2F)cc2cnc(Nc3ccc(F)cn3)cc21 | < 5.30 | < 5.30
